{"source": "paper PMC8987110", "about": "“The Nutraceutical Alliin From Garlic Is a Novel Substrate of the Essential Amino Acid Transporter LAT1 (SLC7A5)” (Frontiers in Pharmacology, 2022)", "key": {"[1]": {"molecular_target": "T1, hLAT1 (LAT1, SLC7A5) (Homo sapiens, UniProt Q01650)", "T1 construct": "recombinant hLAT1 WT alone (no CD98/SLC3A2), expressed in E. coli Rosetta(DE3)pLysS, purified on HisTrap (His tag implied), reconstituted in proteoliposomes with cholesterol", "T1 sequence (Q01650 whole entry)": "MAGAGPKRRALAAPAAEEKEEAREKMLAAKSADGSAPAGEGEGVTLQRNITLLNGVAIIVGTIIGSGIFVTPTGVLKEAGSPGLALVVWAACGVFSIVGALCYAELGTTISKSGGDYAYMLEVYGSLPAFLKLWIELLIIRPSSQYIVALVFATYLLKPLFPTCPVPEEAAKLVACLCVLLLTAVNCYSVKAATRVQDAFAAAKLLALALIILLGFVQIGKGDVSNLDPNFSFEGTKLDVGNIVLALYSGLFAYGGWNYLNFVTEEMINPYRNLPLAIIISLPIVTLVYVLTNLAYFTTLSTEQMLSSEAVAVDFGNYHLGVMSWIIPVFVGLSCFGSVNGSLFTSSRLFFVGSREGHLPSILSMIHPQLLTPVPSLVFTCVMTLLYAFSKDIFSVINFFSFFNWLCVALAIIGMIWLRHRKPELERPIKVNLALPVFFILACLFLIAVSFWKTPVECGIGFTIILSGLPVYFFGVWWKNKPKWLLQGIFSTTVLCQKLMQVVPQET", "assay": "inhibition of [3H]-histidine uptake in proteoliposomes, dose-response", "assay_type": "biochemical"}, "[2]": {"molecular_target": "T1, hLAT1 (LAT1, SLC7A5)", "assay": "inhibition of [3H]-histidine uptake in proteoliposomes, Lineweaver-Burk", "assay_type": "biochemical"}}, "data": [{"smiles": "C=CC[S@+]([O-])C[C@H](N)C(=O)O", "note": "[alliin]", "values": [{"measurement": "IC50", "setting": "[1]", "result": "79 ± 9", "unit": "µM"}, {"measurement": "Ki", "setting": "[2]", "result": "50 ± 19", "unit": "µM"}]}]}
